Test system: human CD4′ Th1 cells
Experiment: TAPI-1 effect on soluble cytokines shed into culture supernatant of re-activated Th1 cells
Assay type: cell-based
Procedure: High Bind 96-well microtiter plates (Meso Scale Discovery (MSD), Gaithersburg, Md.) were spotted with 5 uL goat anti-human LTα clone AF211 (R&D Systems) diluted in PBS/0.05% Tween 20 (PBS/Tween) to 2 μg/ml, and incubated for one hour at room temperature. Wells were blocked with 150 uL PBS+5% BSA for 1-2 hours with agitation. Plates were washed 6× with PBS/Tween and a titration curve of recombinant human LTα3 (Genentech Inc.) controls, and test samples diluted in high salt assay diluent (HSAD: PBS, 0.5% BSA, 0.05% Tween 20, 0.25% CHAPS, 5 mM EDTA, 0.20% BgG, 0.35M NaCl, 10% FBS) were added at 25 μl/well and incubated for 2 hours with agitation. […] Plates were washed, 500 ng/mL Strepavidin-Sulgo-TAG® (MSD) diluted in AD was added at 25 μL/well, and plates were incubated for 30 minutes with agitation. Plates were washed with PBS/Tween 6×, and 150 μl/well of Read Buffer T (MSD) diluted 1:2 in H20 was added to wells. Plates were read on an MA6000 Sector™ Imager (MSD) according to manufacturer's. A weighted 4-parameter fit standard curve was plotted using XLFit (Guildford, UK) and values of unknowns were extrapolated.
Soluble human TNF-α, was detected using a human 96-well TNF-α kit (K111BHA-4, Meso Scale Discovery) according to manufacturer's instructions.
Total human CD4^+ T cells were isolated from PBMC with a CD4^+ T cell isolation kit (Miltenyi Biotec). Cells were cultured in complete DMEM media (DMEM supplemented with 10% FBS, 2 mM glutamine, 2 μM 2-ME, 1 mM sodium pyruvate, 100 U/ml penicillin and 100 μg/ml streptomycin) in presence of 5 μg/ml anti-CD3 mAb and 2 μg/ml anti-CD28 mAb. Human Th subset polarization conditions were as follows: Th0: 5 μg/ml anti-hIL-12, 5 μg/ml anti-hIFN-γ 1 μg/ml anti-hIL-4; Th1: 1 ng/ml rhIL-12, 10 ng/ml rhIFN-γ, 1 μg/ml anti-hIL-4; Th2: 5 ng/ml rhIL-4, 5 μg/ml anti-hIL-12, 6 μg/ml anti-hIFN-γ; Th17: 10 ng/ml rhIL-23, 10 μg/ml anti-hIL-12, 10 μg/ml anti-hIFN-γ. T cells were re-stimulated with 5 μg/mL anti-CD3 and 2 μg/mL anti-CD28 with indicated amount of TNFα protease inhibitor 1 (TAPI-1) (Peptides International) or DMSO as control.
At day1 and day2 after re-stimulation, cells were collected for FACS and RNA preparation; culture supernatants were collected for LT and TNF-α quantitation.
To determine if LTαβ complexes were shed by metalloproteinase cleavage, the TNFα protease inhibitor 1 (TAPI-1), known to inhibit the cleavage of TNFα by ADAM17 protease, was tested on human CD4′ Th1 cells. Culture supernatants were analyzed for solLTαβ, LTα3 and TNFα one day post re-activation in the presence or absence of TAPI-1 (FIGS. 2A & B). T cells were collected, cultured and polarized as in Example 2 above.

[1] = Th1 cells, 10 or 50 μM TAPI-1, 1 day post re-activation

## CC(C)C[C@H](CC(=O)NO)C(=O)N[C@@H](Cc1ccc2ccccc2c1)C(=O)N[C@@H](C)C(=O)NCCN [TAPI-1]
TAPI-1 treated Th1 cells, FACS, data not shown
  increase in cell surface LT: not accompanied by an increase in cell surface LT
[1]
  decrease of shed TNFα supernatant concentrations: 3-8 fold
  secreted LTα3 in supernatant: not affected
Th1 cells, 10 or 50 μM TAPI-1, 1 day post re-activation, dose dependent
  decrease of soluble LTαβ levels in supernatants of re-activated cells: 2-7 fold

From US20110263451A1, “BIOLOGICAL MARKERS PREDICTIVE OF RHEUMATOID ARTHRITIS RESPONSE TO LYMPHOTOXIN ANTAGONISTS” (GENENTECH, INC, priority 2008, published 2011)
